One assay concerns MDA-MB-231 cells. Kind of assay: Cell viability assay (CellTiter-Glo). The settings on record: Homo sapiens; cell viability assay with MDA-MB-231 cells. The class given is cell-based. How it is done:
MDA-MB-231 cells grew in DMEM medium supplemented with 10% FCS (fetal calf serum), 1% PS (penicillin-streptomycin) and 1% L-glutamine (all from Biological Industries). Exclusion of mycoplasma contamination was monitored and conducted by test with MycoAlert™ kit (Lonza). Cells were trypsinized and counted, and 1000 cells/well were plated in 50 μl of growth medium into 384-well white TC plates (Greiner) using Multidrop™ 384 (Thermo Scientific) Washer Dispenser II. The number of viable cells was monitored using CellTiter-Glo® Luminescent kit (Promega) in accordance with the manufacturer's protocol. Luminescence was measured using luminescence module of PHERAstar™ FS plate reader (BMG Labtech). Data analysis was performed using GeneData 12 analytic software. Assay ready plate preparation: Compounds transferred into black microplates (Greiner 784900) using Labcyte Echo® acoustic dispensing technology. Assay ready plates were then sealed with heat seals. If not used immediately, plates were frozen at −20° C. and held in polypropylene boxes with silica-gel desiccant.
Exemplary Pin1-binding compounds were also tested for non-selective cytotoxicity in a viability assay against IMR90 lung fibroblasts.

A further assay has as its target T1, Pin1 in PATU-8988T cells (Homo sapiens, UniProt Q13526).
T1 construct: endogenous in cells; host or cells: PATU-8988T
In words: Live cell competition assay with Pin1-3-DTB pull-down, PATU-8988T cells. The assay is classed as cell-based. As for the experimental part:
The indicated cells were treated with increasing concentrations of either DMSO, Pin1-3, or Pin1-3-AcA for 5 hours. Cells were harvested by scraping and washed twice with PBS before lysis with 50 mM HEPES (pH 7.4), 1 mM EDTA, 10% glycerol, 1 mM TCEP, 150 mM NaCl, 1 mM EDTA, 0.5% NP-40, and protease inhibitor tablet (Roche cat. #4693159001). After clarifying (14,000 rpm for 15 minutes), samples were treated with the indicated concentrations of Pin1-3-DTB at 4° C. for 1 hour. Lysates were then incubated with streptavidin agarose resin (Thermo Scientific, cat. #20349) for 1.5 hour at 4° C. Beads were washed four times with 500 μl of washing buffer (50 mM HEPES (pH 7.5), 10 mM NaCl, 1 mM EDTA, 10% glycerol), then pelleted by centrifugation and dried. The beads were boiled for 5 minutes at 95° C. in 2×LDS+10% β-mercaptoethanol. Proteins of interest were then assessed via Western blotting using the bolt system (Life Technologies).
The indicated cells were plated in 10 cm plates with 2.5 million cells per plate in 6 ml of medium. The day after plating, cells were treated with the indicated concentrations of candidate inhibitor for the indicated time points. The cells were then washed two times with cold phosphate buffer saline (1 ml per 10 cm plate) and collected by scraping with a cell scraper. Cells were lysed in 50 mM HEPES (pH 7.4), 1 mM EDTA, 10% glycerol, 1 mM TCEP, 150 mM NaCl, 1 mM EDTA, 0.5% NP-40, and protease inhibitor tablet (Roche)-using 210 μl of cell lysis buffer per 10 cm plate of cells. After clarifying (14,000 rpm for 15 minutes), 9 μl of each lysate sample was combined with […] of 4×LDS+10% β-mercaptoethanol (in a ratio of 3:1), boiled for 5 minutes, and set aside for the input loading control. Then, 200 μl of each lysate sample was incubated with 1 μM of Pin1-3-DTB for 1 hour at 4° C. and processed as described hereinabove for the lysate pull-down assays.
In order to assess cell permeability of Pin1-3 as well as its ability to engage cellular Pin1, PATU-8988T cells were treated with Pin1-3 (0.25 to 1 μM) for 5 hours. After cell lysis, the lysates were incubated with Pin1-3-DTB (1 μM, 1 hour at 4° C.) and probe-labeled targets were pulled down with streptavidin beads.

Here are results for 1 compound from US20210332024A1, “MODULATORS OF PIN1 ACTIVITY AND USES THEREOF” (Yeda Research and Development Co. Ltd., priority 2019, published 2021).

T1 sequence (Q13526 whole entry): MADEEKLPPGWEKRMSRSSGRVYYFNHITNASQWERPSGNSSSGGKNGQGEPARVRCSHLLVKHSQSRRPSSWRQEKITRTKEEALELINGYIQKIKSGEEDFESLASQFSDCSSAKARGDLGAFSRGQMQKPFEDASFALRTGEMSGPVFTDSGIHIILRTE

Broadly, the EC50 is the concentration at which the effect is half-maximal. A low value points to a more potent agent. Consider `CC(C)(C)CN(C(=O)CCl)C1CCS(=O)(=O)C1` (centres unmarked) [Pin1-3, 2-chloro-N-(sulfolan-3-yl)-N-neopentylacetamide], for which the EC50 in the assay on MDA-MB-231 cells was > 25 µM. Further, at Pin1 in PATU-8988T cells (1 μM), the “Engagement of Pin1 after 2 hours” value is “about 50%” and the “Time to complete engagement of Pin1” value is ≤ 4 h. For the same compound, the “Competition with Pin1-3-DTB for Pin1 binding (pull-down)” value on Pin1 in PATU-8988T cells (0.25 to 1 μM for 5 hours (Pin1-3-AcA 1 μM)) is “dose-dependent inhibition of Pin1-3-DTB pull-down”. For the same compound, the “Concentration of maximal competition” value on Pin1 in PATU-8988T cells (5 hours) came to 1 µM.
